The source made the active and inactive calls. The calls are words filed in the database; no cut-off is given here.
Key:
[1] = Drug localization in total leukocytes of C57BL/6 mouse assessed as TMR-positive total leukocytes at 5 mg/kg using TMR-labeled compound instilled into both nostrils measured after 4 hrs by flow cytometry; type: ADME, organism-based, Leucocyte; conditions: in vivo, inhaled_or_intranasal
[2] = Toxicity in C57BL/6 mouse assessed as efect on animal growth rates at 50 mg/kg, ip measured during 1 weeks; type: organism-based; conditions: in vivo, 168 h
[3] = Stability in 25% human serum assessed as compound degradation at 5 uM at 37 degC incubated for 24 hrs by HPLC analysis; type: ADME, cell-free; conditions: 25% human serum, read-out: Drug degradation
[4] = species on record: Homo sapiens; assay: (§1) Binding affinity to GST-tagged Calcineurin (unknown origin) assessed as reduction in binding of peptide-14 incubated for 1 hr by fluorescence polarization assay
[5] = as §1; design: species or system Homo sapiens
[6] = Solubility in PBS containing 5% DMSO at pH 7.4 incubated for 1 hr; type: physicochemical
[7] = Toxicity in of C57BL/6 mouse assessed as induction of neutrophil infiltration at 5 mg/kg using TMR-labeled compound instilled into both nostrils measured after 24 hrs by Hema-3.0 staining based assay; type: organism-based; conditions: in vivo, inhaled_or_intranasal
[8] = Drug localization in plasma of C57BL/6 mouse at 5 mg/kg using TMR-labeled compound instilled into both nostrils measured after 24 hrs by flow cytometry; type: ADME, organism-based; conditions: in vivo, inhaled_or_intranasal
[9] = Tmax in BALF of C57BL/6 mouse at 5 mg/kg using TMR-labeled compound instilled into both nostrils by flow cytometry; type: ADME, organism-based, Bronchoalveolar lavage; conditions: inhaled or intranasal
[10] = test system: HeLa; assay: Toxicity in human HeLa cells assessed as reduction in cell viability up to 25 uM incubated for 72 hrs by MTT assay; type: cell-based
[11] = test system: Mus musculus; assay: Anti-inflammatory activity in BALB/c mouse model of LPS-induced ALI assessed as reduction in LPS-induced TNFalpha in plasma at 5 mg/kg dosed via intranasal insuffIation pre-treated 2 hrs before LPS stimulation for 16 hrs; type: functional, organism-based; conditions: dose mg/kg 5-10, time 18.0 hrs
[12] = test system: NCI-H441; assay: Toxicity in human NCI-H441 cells assessed as reduction in cell viability up to 25 uM incubated for 72 hrs by MTT assay; type: cell-based; conditions: nci-h441, 72 h
[13] = Binding affinity to GST-tagged Calcineurin (unknown origin) incubated for 1 hr by fluorescence polarization assay; design: species or system Homo sapiens
[14] = Drug uptake in human HeLa cells at 5 uM incubated for 2 hrs using naphthofluorescein-labelled compound by live-cell confocal microscopic analysis; type: ADME, cell-based
[15] = Toxicity in C57BL/6 mouse assessed as effect on body temperature at 50 mg/kg, ip; type: organism-based; conditions: in vivo
[16] = test system: Mus musculus; assay: Anti-inflammatory activity in BALB/c mouse model of LPS-induced ALI assessed as reduction in LPS-induced TNFalpha in BALF at 5 mg/kg dosed via intranasal insuffIation pre-treated 2 hrs before LPS stimulation for 16 hrs; type: functional, organism-based; conditions: dose mg/kg 5-10, time 18.0 hrs
[17] = test system: Mus musculus; assay: Anti-inflammatory activity in BALB/c mouse model of LPS-induced ALI assessed as reduction in LPS-induced extravasated BALF protein in BALF at 5 mg/kg dosed via intranasal insuffIation pre-treated 2 hrs before LPS stimulation for 16 hrs; type: functional, organism-based; conditions: dose mg/kg 5-10, time 18.0 hrs
[18] = test system: Mus musculus; assay: Anti-inflammatory activity in BALB/c mouse model of LPS-induced ALI assessed as reduction in LPS-induced TNFalpha in BALF at 10 mg/kg dosed via intranasal insuffIation pre-treated 2 hrs before LPS stimulation for 16 hrs; type: functional, organism-based; conditions: time 18.0 hrs
[19] = test system: Mus musculus; assay: Anti-inflammatory activity in BALB/c mouse model of LPS-induced ALI assessed as reduction in LPS-induced IL6 in BALF at 5 mg/kg dosed via intranasal insuffIation pre-treated 2 hrs before LPS stimulation for 16 hrs; type: functional, organism-based; conditions: dose mg/kg 5-10, time 18.0 hrs
[20] = test system: Macrophage; assay: Inhibition of calcineurin-NFATc3 interaction in mouse bone marrow-derived macrophages assessed as reduction in LPS-induced NFATc3 nuclear translocation at 1 uM pre-incubated before LPS stimulation for 1 hr using biotinylated compound by immunofluorescence staining assay
[21] = Drug localization in total leukocytes of C57BL/6 mouse assessed as TMR-positive total leukocytes at 5 mg/kg using TMR-labeled compound instilled into both nostrils measured after 24 hrs by flow cytometry; type: ADME, organism-based, Leucocyte; conditions: in vivo, inhaled_or_intranasal
[22] = Toxicity in C57BL/6 mouse assessed as induction of body weight loss at 10 mg/kg dosed via intranasal insuffIation measured during 1 weeks; type: organism-based; conditions: in vivo, inhaled_or_intranasal, 168 h
[23] = test system: Mus musculus; assay: Anti-inflammatory activity in BALB/c mouse model of LPS-induced ALI assessed as reduction in LPS-induced extravasated BALF protein in BALF at 10 mg/kg dosed via intranasal insuffIation pre-treated 2 hrs before LPS stimulation for 16 hrs; type: functional, organism-based; conditions: time 18.0 hrs
[24] = test system: Macrophage; assay: Inhibition of calcineurin-NFATc3 interaction in mouse lung macrophages assessed as reduction in LPS-induced TNFalpha production at 0.1 to 10 uM pre-incubated 4 hrs before LPS stimulation for 8 hrs by ELISA; type: tissue-based; conditions: dose microM 0.1-10, time 12.0 hrs
[25] = test system: Mus musculus; assay: Anti-inflammatory activity in BALB/c mouse model of LPS-induced ALI assessed as reduction in lung wet-to-dry ratios at 10 mg/kg dosed via intranasal insuffIation pre-treated 2 hrs before LPS stimulation for 16 hrs; type: functional, organism-based; conditions: time 18.0 hrs
[26] = test system: Mus musculus; assay: Anti-inflammatory activity in BALB/c mouse model of LPS-induced ALI assessed as reduction in LPS-induced IL6 in plasma at 5 mg/kg dosed via intranasal insuffIation pre-treated 2 hrs before LPS stimulation for 16 hrs; type: functional, organism-based; conditions: dose mg/kg 5-10, time 18.0 hrs
[27] = test system: Mus musculus; assay: Anti-inflammatory activity in BALB/c mouse model of LPS-induced ALI assessed as reduction in number of neutrophils BALF at 10 mg/kg dosed via intranasal insuffIation pre-treated 2 hrs before LPS stimulation for 16 hrs; type: functional, organism-based; conditions: time 18.0 hrs
[28] = Toxicity in of C57BL/6 mouse assessed as effect on lactate dehydrogenase level in total lung cells at 5 mg/kg using TMR-labeled compound instilled into both nostrils measured after 24 hrs by Cyto-tox 96 assay; type: organism-based; conditions: in vivo, inhaled_or_intranasal
[29] = test system: Mus musculus; assay: Anti-inflammatory activity in BALB/c mouse model of LPS-induced ALI assessed as reduction in number of neutrophils BALF at 5 mg/kg dosed via intranasal insuffIation pre-treated 2 hrs before LPS stimulation for 16 hrs; type: functional, organism-based; conditions: dose mg/kg 5-10, time 18.0 hrs
[30] = Toxicity in C57BL/6 mouse assessed as induction of body weight loss at 50 mg/kg, ip measured during 1 weeks; type: organism-based; conditions: in vivo, 168 h
[31] = Toxicity in mouse lung macrophages cells assessed as reduction in cell viability up to 25 uM incubated for 72 hrs by MTT assay; type: tissue-based; conditions: macrophage
[32] = test system: Mus musculus; assay: Anti-inflammatory activity in BALB/c mouse model of LPS-induced ALI assessed as reduction in LPS-induced TNFalpha in plasma at 10 mg/kg dosed via intranasal insuffIation pre-treated 2 hrs before LPS stimulation for 16 hrs; type: functional, organism-based; conditions: time 18.0 hrs
[33] = Toxicity in C57BL/6 mouse assessed as effect on self grooming at 50 mg/kg, ip; type: organism-based; conditions: in vivo
[34] = Toxicity in C57BL/6 mouse assessed as effect on animal growth rates at 10 mg/kg dosed via intranasal insuffIation measured during 1 weeks; type: organism-based; conditions: in vivo, inhaled_or_intranasal, 168 h
[35] = test system: Mus musculus; assay: Anti-inflammatory activity in BALB/c mouse model of LPS-induced ALI assessed as reduction in lung wet-to-dry ratios at 5 mg/kg dosed via intranasal insuffIation pre-treated 2 hrs before LPS stimulation for 16 hrs; type: functional, organism-based; conditions: dose mg/kg 5-10, time 18.0 hrs
[36] = test system: Macrophage; assay: Inhibition of calcineurin-NFATc3 interaction in mouse lung macrophages assessed as reduction in LPS-induced IL6 production at 0.1 to 10 uM pre-incubated 4 hrs before LPS stimulation for 8 hrs by ELISA; type: tissue-based; conditions: dose microM 0.1-10, time 12.0 hrs
[37] = test system: Mus musculus; assay: Anti-inflammatory activity in BALB/c mouse model of LPS-induced ALI assessed as reduction in LPS-induced IL6 in BALF at 10 mg/kg dosed via intranasal insuffIation pre-treated 2 hrs before LPS stimulation for 16 hrs; type: functional, organism-based; conditions: time 18.0 hrs
[38] = Toxicity in C57BL/6 mouse assessed as effect on respiratory function measured by pulmonary arterial oxygen saturation at 50 mg/kg, ip; type: organism-based; conditions: in vivo
[39] = Toxicity in C57BL/6 mouse assessed as effect on physical appearance at 50 mg/kg, ip; type: organism-based; conditions: in vivo

Drug uptake [1]: 80%
metabolised at 24 h, 5 µM [3]: < 10%
inhibition [4]: Dose-dependent effect
IC50 [5]: 630 nM
solubility kinetic at 1 h [6]: ≥ 100 µM
Drug uptake [8]: Not Active
Tmax [9]: 2 h
Kd [13]: 75 nM
Drug uptake [14]: Active
Drug uptake [21]: Not Active
Compound: CC[C@H](C)[C@H](NC(=O)[C@@H](NC(=O)c1cccc(Cl)c1Cl)C(C)(C)C)C(=O)N[C@H](C(=O)N[C@H](C(=O)N[C@H](C(=O)N[C@@H](CCC(N)=O)C(=O)N[C@@H](Cc1cnc[nH]1)C(=O)N[C@@H](CC(C)C)C(=O)N[C@@H](CO)C(=O)NCCC(=O)N[C@@H](CCCCNC(=O)CC[C@@H]1NC(=O)[C@@H](CCCNC(=N)N)NC(=O)[C@H](CCCNC(=N)N)NC(=O)[C@@H](CCCNC(=N)N)NC(=O)[C@H](CCCNC(=N)N)NC(=O)[C@H](Cc2ccc3ccccc3c2)NC(=O)[C@@H](Cc2ccccc2)NC1=O)C(N)=O)[C@H](C)O)[C@@H](C)CC)C(C)(C)C
Activity [2]: Non-Toxic
Activity [7]: Non-Toxic
Activity [10]: Non-Toxic
Activity [11]: inactive
Activity [12]: Non-Toxic
Activity [15]: Non-Toxic
Activity [16]: inactive
Activity [17]: inactive
Activity [18]: Active
Activity [19]: inactive
inhibition [20]: Active
Activity [22]: Non-Toxic
Activity [23]: Active
inhibition ([24]; DISRUPTING AGENT): Dose-dependent effect
inhibition [24]: 17%
Activity [25]: Active
Activity [26]: inactive
Activity [27]: Active
Activity [28]: Non-Toxic
Activity [29]: inactive
Activity [30]: Non-Toxic
Activity [31]: Non-Toxic
Activity [32]: Active
Activity [33]: Non-Toxic
Activity [34]: Non-Toxic
Activity [35]: inactive
inhibition ([36]; DISRUPTING AGENT): Dose-dependent effect
inhibition [36]: 22%
Activity [37]: Active
Activity [38]: Non-Toxic
Activity [39]: Non-Toxic
